Laboratory results taken from paper PMC11098465, “A comparative analysis of peptide-delivered antisense antibiotics using diverse nucleotide mimics” (RNA, 2024).

Assays:
[1] = system: Cy5 5′-labeled acpP target RNA (40 nt, −20 to +20); assay: Microscale thermophoresis (MST) binding affinity; set-up: species or system Salmonella; settings: for EC50 of binding to target mRNA by MST (in words): unconjugated ASO; for EC50: read-out: mRNA-binding affinity (EC50)
Excerpt: To further quantify the binding affinities of the ASOs to the target mRNA, we used MST, a sensitive technique that measures a temperature-induced change in the fluorescence of a substrate as a function of the concentration of a nonfluorescent ligand ([Moon et al. 2018]; [Zimmer et al. 2021]). MST allowed us to quantify target affinity by calculating EC50 values, the half maximal effective concentration of binding to target mRNA (Table 1; Supplemental Fig. S4). […] Both are known to adopt C3′-endo ribose pucker conformation, which enhances their binding affinity to target mRNA ([Julien et al. 2008]; [Pallan et al. 2012]).
For each binding experiment, Cy5 5′-labeled RNA (as described above) was diluted to 10 nM in buffer A (50 mM Tris-HCl pH 7.6, 250 mM KCl, 5 mM MgCl2, 1 mM DTT, 5% glycerol supplemented with 0.05% Tween 20). A series of 16 tubes with different ASO dilutions (500–0.015 nM) were prepared in buffer A. For measurements, each ASO dilution was mixed with one volume of labeled RNA, which led to a final concentration of 5 nM labeled RNA and 250–0.007 nM of ASOs. The reaction was mixed by pipetting and incubated for 30 min at RT in the dark. Capillary forces were used to load the samples into Monolith NT.115 Premium Capillaries; measurements were performed using a Monolith Pico instrument (NanoTemper Technologies Gmbh) at an ambient temperature of 25°C. Instrument parameters were adjusted to 5% LED power, medium MST power, and MST on-time of 2.5 s. An initial fluorescence scan was performed across the capillaries to determine sample quality, which was followed by 16 thermophoresis measurements. […] Data of two independent measurements were analyzed for the ΔFnorm value determined by the MO Affinity Analysis software (NanoTemper Technologies Gmbh). The fitting for EC50 values was done using the Hill equation within the MO Affinity Analysis software. Data are presented as the mean EC50 values of two independent experiments.

[2] = system: 5′ Cy5-labeled acpP target RNA (40 nt); assay: Electrophoretic mobility shift assay (EMSA); type: binding, Salmonella; set-up: key to mRNA hybridization (EMSA): +++: Effect strength is represented by additional (+) signs.; ++: Effect strength is represented by additional (+) signs.; Effect strength is represented by additional (+) signs; settings: unconjugated ASO, ASO:RNA 0.3:1 to 2.5:1; for Shift of target mRNA in EMSA (in words): 30 min RT, 15% native PAA gel; for mRNA hybridization (EMSA): summary grade
Experimental: To compare the ability of the unconjugated ASOs to hybridize to the target transcript, we used electrophoretic mobility shift assays (EMSAs), thermal UV melting curves, and microscale thermophoresis (MST). We first conducted EMSAs using a 40 nt target RNA sequence (nt −20 to +20 relative to the acpP translational start codon), which was 5′-labeled with a Cy5 dye. Sequence-specific ASOs were added at defined ASO:RNA ratios, while water or a scrambled PNA (PNAscr) were used as negative controls. We performed these binding studies with unconjugated ASOs, because the KFF carrier peptide is cleaved during transport into the bacterial cytoplasm ([Yavari et al. 2021]). […] The DNA-PTO modification is known to reduce the binding affinity of the ASO to its target RNA ([Chan et al. 2006]), and a 10mer might be too short to mediate interactions under our experimental conditions. To test if an excess of unspecific RNA impacts target binding, we also included samples that contained 1 μg yeast tRNA.
The EMSA was performed with a Cy5 5′-labeled RNA (purchased from Eurofins) encompassing the sequence spanning nucleotides −20 to +20 of acpP relative to the translation start codon. For annealing, TM buffer (10 mM Tris-HCl, 50 mM MgCl2) was used. First, 20 µM RNA was denatured by incubation at 95°C for 5 min followed by placement on ice. Then 1 µL of RNA (spiked with or without 1 µL of yeast tRNA [Ambion at a concentration of 10 mg/mL]) was added to PCR tubes containing 8 µL of water. To this, 1 µL of ASOs at the indicated concentrations (6.25–50 µM) was added to adjust ASO:RNA ratios of 0.3:1 to 2.5:1. As negative control, water was added instead of ASO, while a PNAscr sequence served as sequence-unspecific negative control (Fig. 2; Supplemental Fig. S2). These mixtures were incubated for 30 min at room temperature (RT), followed by the addition of 10 µL 2× gel loading (GL) buffer for subsequent loading on native 15% PAA RNA gel without urea (20 µL/sample; 6 µL of a 50 bp DNA marker + 14 µL 1× GL). The gel was run at 100–120 V for 2–3 h, concomitantly stained with SYBR gold (Thermo Fisher Scientific) for 15 min and imaged on Geldoc (Isogen Life Science B.V.).

[3] = unconjugated ASO 250-0.007 nM, 5 nM Cy5 RNA, 50 mM Tris-HCl pH 7.6, 250 mM KCl, 5 mM MgCl2, 30 min RT, 25°C, Hill fit, mean ± SD, two independent experiments

Substance | mRNA-binding affinity (EC50) [1, 3] | Shift of target mRNA in EMSA (in words) [2] | EC50 of binding to target mRNA by MST (in words) [1] | EC50 [1, 3] [nM] | mRNA hybridization (EMSA) [2]
DNA-PTO: phosphorothioate-modified DNA 10mer ASO, sequence CTCATACTCT, targeting acpP −5 to +5 (DNA, all phosphorothioate, methylation of C not given here) | Could not be determined | did not interact with the target mRNA at any of the concentrations tested | – | – | –
LNA: 2′–4′-locked RNA 10mer ASO, sequence CTCATACTCT, targeting acpP −5 to +5 (all LNA, backbone and methylation of C not given here) | – | concentration-dependent shift of the target mRNA, starting at a 0.3:1 ratio of ASO:RNA | upper picomolar range | 0.3 ± 0.1 | +++
PMO: phosphorodiamidate morpholino 10mer ASO, sequence CTCATACTCT, targeting acpP −5 to +5 (all phosphorodiamidate morpholino (PMO)) | – | limited binding even at 2.5× excess | lower-mid nanomolar range | 5.9 ± 2.7 | +
PNA: peptide nucleic acid 10mer ASO, sequence CTCATACTCT, targeting acpP −5 to +5 (all peptide nucleic acid (PNA)) | – | concentration-dependent shift of the target mRNA, starting at a 0.3:1 ratio of ASO:RNA | upper picomolar range | 0.4 ± 0.4 | +++
RNA-F: 2′-fluorinated RNA 10mer ASO, sequence CTCATACTCT, targeting acpP −5 to +5 (all 2'-fluoro, backbone and T or U not given here) | – | concentration-dependent shift of the target mRNA, starting at a 0.3:1 ratio of ASO:RNA | lower-mid nanomolar range | 72.8 ± 36.2 | ++
RNA-MOE: 2′-methoxyethylated RNA 10mer ASO, sequence CTCATACTCT, targeting acpP −5 to +5 (all 2'-MOE, backbone and methylation of C not given here) | – | concentration-dependent shift of the target mRNA, starting at a 0.3:1 ratio of ASO:RNA | upper picomolar range | 0.3 ± 0.2 | ++
RNA-OMe: 2′-methylated RNA 10mer ASO, sequence CTCATACTCT, targeting acpP −5 to +5 (all 2'-O-methyl, backbone and T or U not given here) | – | did not interact with the target mRNA at any of the concentrations tested | lower-mid nanomolar range | 4 ± 0.2 | –
